Assay results from patent US9744165B2, “Method for treating hypertension” (TSH Biopharm Corporation Ltd., priority 2010, dated 2017).

How the values were obtained:
[1] = test system: animal models of hypertension; conditions: cited from earlier work
[2] = test system: spontaneous hypertensive rats (SHR); experiment: Anti-hypertensive efficacy of monotherapy and combined therapy in spontaneous hypertensive rats (tail-cuff blood pressure); type: in vivo, rat
Experimental: An in vivo study was conducted to measure and compare the anti-hypertensive efficacy and tolerability of dextromethorphan and amlodipine in monotherapy and combined therapy in spontaneous hypertensive rats, an animal model for hypertension. The same study can be performed with other NADPH oxidase inhibitor and CCB.
Aged 18-week male normotensive Wistar Kyoto (WKY) and spontaneous hypertensive rats (SHR) were used in this study.
Untreated WKY and SHR were compared with SHR treated with amlodipine (1, 5 mg/kg/day) or dextromethorphan (1, 5, 25 mg/kg/day) and fix dose combination (AM+DM) using a matrix combination of above doses for 4 weeks. All the treatment groups are listed in Table 1, including G1˜G12 for SHR and G0 for WKY as a control.
Control rats (G0 and G1) received 1% solution of methylcellulose (1 ml/kg) by a gavage as a vehicle. AM and DM were suspended in 1% solution of methylcellulose and administered by a gavage in a 1 ml/kg volume. All compounds were administered for 4 weeks. Arterial blood pressure measurement and blood sampling were carried out before treatment, and after the second and forth week of drug administration.
Arterial blood pressure was measured in conscious rats with an automatic sphygmomanometer, using tail-cuff method. Before the measurements, the animals were placed inside a warming chamber (about 34° C.) for 30 min. The aim of the procedure is to calm the animals and dilate the tail blood vessels. Arterial blood pressure was measured at least three times for each animal. Changes in pressure are expressed as the percentage of baseline values.
Arterial blood pressure and blood sampling will be measured before treatment, and after the second and forth week of drug administration (FIG. 6).
Results are expressed as mean±SD. The normality of distribution was checked by means of Kolmogorov-Smirnov test with Lilliefors test. The statistical evaluation was performed using analysis of variance (ANOVA) and post hoc comparisons were performed by means of Least Significant Differences (LSD) test. If the data were not normally distributed, statistical evaluation was performed by using ANOVA (Kruskall-Wallis) and Mann-Whitney U test. Differences were considered significant when p<0.05.

[3] = test system: apolipoprotein E (apoE)-deficient mice; conditions: cited from earlier work

COc1cc(C(C)=O)ccc1O [apocynin]
blood pressure [1]: decrease blood pressure

COc1ccc2c(c1)[C@]13CCCC[C@@H]1[C@H](C2)N(C)CC3 [DM, (+)-3-methoxy-17-methyl-9α,13α,14α-morphinan]
blood pressure lowering effect (SBP, DBP, MBP) ([2]; DM alone at 1, 5 and 25 mg/kg/day by gavage for 4 weeks, FIGS. 1a-d): resulted in lowering of the blood pressure
dosage response of blood pressure lowering ([2]; DM alone, 1 vs 5 vs 25 mg/kg/day): no clear dosage response was observed
superoxide production ([3]; aorta and carotid artery of apoE-deficient mice): decreases superoxide production
oxidative stress, atherosclerosis and neointima formation ([3]; mice, through direct inhibition of NADPH oxidase): reduces oxidative stress and inhibits atherosclerosis and neointima formation

CCOC(=O)C1=C(COCCN)NC(C)=C(C(=O)OC)C1c1ccccc1Cl (stereo not shown) [AM, 3-ethyl 5-methyl 2-[(2-aminoethoxy)methyl]-4-(2-chlorophenyl)-1,4-dihydro-6-m ethylpyridine-3,5-dicarboxylate]
blood pressure lowering effect (SBP, DBP, MBP) ([2]; AM alone at 1 and 5 mg/kg/day by gavage for 4 weeks, FIGS. 2a-d): resulted in lowering of the blood pressure
dosage response of blood pressure lowering ([2]; AM alone, 1 vs 5 mg/kg/day): more pronounced with the higher dose
